We go through three compounds from patent US20050043319A1, “Molecular target of neurotoxicity” (EXONHIT THERAPEUTICS SA, priority 2001, published 2005).

Assay [1] relates to Amyotrophic Lateral Sclerosis (ALS). The following applies: ALS patients; cited from earlier work.
In the next assay the test system is cortical neurons. Put plainly: Excitotoxicity protection in primary cortical cell cultures (MTT test). The settings on record: 6 hour incubation. It counts as cell-based, rat. How it is done: Sixteen-day-old embryos from Wistar rats were removed and the cortex dissected. […] After four days of culture, half of the medium was replaced by minimum essential medium supplemented with 5% horse serum and 2 mM glutamine. On the same day, 10 μM 5-fluoro-2-deoxyuridine, an antimitotic agent, was added. After 7 and 11 days of culture, half of the medium was replaced by conditioned medium composed of MEM supplemented with 5% horse serum and 2 mM glutamine; this medium was passed overnight on a layer of cortical astrocytes before use.
Toxicity was measured with an MTT test.

The next assay concerns rat brain granular cells. The settings on record: for protection of brain granular cells: 6 hour incubation, MTT; for protective effect on neuron survival: neurons cotreated with PDE4 inhibitor, both excitotoxicity inducers (NMDA/serine and kainate), FIGS. 2 to 10.
Setting [2] is: NMDA/serine treatment (20 μM NMDA + 10 μM D-serine).
Setting [3] is: kainate-induced toxicity (50 μM kainate).
[4] abbreviates: NMDA/serine treatment (100 μM NMDA + 10 μM D-serine).

Like-named read-outs stand apart in the source and are kept apart here.

Regarding `Nc1nc2ccc(OC(F)(F)F)cc2s1` [Riluzole], in assay [1], the “improvement in the measures of muscular strength” value is given as “does not provide improvement”.
In the case of `CCOC(=O)c1cnc2c(cnn2CC)c1NN=C(C)C` [etazolate], the “protective effect on cortical neurons” value in the assay with cortical neurons (setting [2]) was found to be 33%; in the assay on cortical neurons (setting [3]), 25%. The “protection of brain granular cells” value in the assay with rat brain granular cells (setting [4]) is reported as 60%; in the assay on rat brain granular cells (setting [3]) it was 57%. The “protective effect on neuron survival” value in the assay on rat brain granular cells was “dose-dependent protective effect”.
For `CC(=O)CCCCn1c(=O)c2c(ncn2C)n(C)c1=O` [pentoxifylline] the same measures were 50%, 66%, 43%, 33% and “dose-dependent protective effect”.
